Here are results for 1 compound from patent US8901118B2, “Compounds and methods for kinase modulation, and indications therefor” (Plexxikon Inc., priority 2010, dated 2014).

This assay has as its system MV-4-11 cells. Briefly: MV-4-11 (leukemia) cell proliferation assay (ATPlite). In kind it is cell-based. The note with it: Homo sapiens, MV4-11, read-out: Inhibition of Cell Proliferation IC50, MV-4-11. The procedure: Compounds are assessed in a variety of cell based assays. For example BaF3 cells engineered with any of BCR-FMS, BCR-KIT, BCR-FLT3, BCR-NTRK1, BCR-NTRK2, and BCR-NTRK3, are used in cell proliferation assays to assess inhibitory activity of Fms, Kit, Flt-3, TrkA, TrkB, and TrkC, respectively. An MV-4-11 (leukemia) cell proliferation assay is used to assess inhibitory activity in Flt-3, and SKNSH (human neuroblastoma) cell proliferation assay is used to assess efficacy of Fms/Trk inhibitors. Additional cells may be assayed similarly to assess the efficacy of Fms/Trk inhibitors, such as MiaPaCa (human pancreatic cancer) and Capan-1 (human pancreatic carcinoma) cells. Reagent and assay conditions are as follows: • BaF3 cells: • Maintained in RPMI containing 10% FBS, 1% PenStrep, 1% NEAA, and 1% L-Glutamine, supplemented with 1 mg/mL G418 and 5% WEHI-CM (or recombinant murine IL-3). • Confluent cells are split 1:50 to 1:100 every 3-4 days. • MV-4-11 cells: • Maintained in Iscove's Modified Dulbecco's Medium containing 10% FBS. • Confluent cells are split 1:4 every 3-4 days. • SKNSH cells: RPMI containing 10% FBS. On day 1, cells are counted, then centrifuged in a conical tube for 5 minutes at 1000 rpm. The supernatant is removed and cells are re-suspended as follows: • BaF3: resuspend in growth media +1 mg/mL G418 (without WEHFIL-3) to 2×10^5 cells/mL. • MV-4-11: resuspend in growth media to 5×10^5 cells/mL. • SKNSH: resuspend in growth media to 2×10^4 cells/mL. The cells are plated (50 μL, 150 μL for SKNSH cells) in each well of a 96-well dish (Corning 3610) and incubated at 37° C. in 5% CO2 overnight, cells plated to a final concentration of cells as follows: • BaF3: 10,000 cells per well. • MV-4-11: 25,000 cells per well. • SKNSH: 3,000 cells per well. On day 2, compound at a maximum concentration of 5 mM is serially diluted 1:3 for a total of 8 point titration with DMSO as a control. A 1 μL aliquot of each dilution point is added to 249 μL growth media and 50 μL is added to a well containing cells, providing 10 μM compound for the maximum concentration point. The cells are incubated for 3 days at 37° C. in 5% CO2. For SKNSH cells, a 0.75 μL aliquot of appropriate dilution in DMSO is added to 150 μL of cells. On day 5, ATPlite 1 step Luminescence Assay System (Perkin Elmer #6016739) is brought to room temperature along with the cell cultures. ATPlite is added to each well as follows: • BaF3: 25 μL per well. • MV-4-11: 40 μL per well. • SKNSH: 20 μL per well. The cells are incubated at room temperature for 10 minutes, then luminescence is read on Safire reader. The measured luminescence correlates directly with cell number, such that the reading as a function of compound concentration is used to determine the IC50 value.
It is understood that the results of these assays may vary as assay conditions are varied. Inhibition levels determined under the conditions described herein represent a relative activity for the compounds tested under the specific conditions employed. The cell based assays are likely to show variability due to the complexity of the system and the sensitivity thereof to any changes in the assay conditions. […] Results for compounds that are tested and show substantially no inhibition below the highest tested concentration are represented as “-” in the tables below. In some instances, the compounds were not tested in all of the assays, or assay results were not valid, as indicated by NA in the tables below.

Turning to `Fc1nc(NC2CCC(F)(F)CC2)ccc1Cc1c[nH]c2ncc(Cl)cc12` [Compound P-3013, [5-(5-Chloro-1H-pyrrolo[2,3-b]pyridin-3-ylmethyl)-6-fluoro-pyridin-2-yl]-(4,4-difluoro-cyclohexyl)-amine], the IC50 was less than 10 µM.
